# Measured values from patent publication US20260335323A1, “CHIMERIC MOLECULE” (UCL Business Ltd, priority 2023, published 2026).
# Tests used:
# Assay type in all cases: cell-based, human
# p62/SQSTM1 = assay: Western blot, p62/SQSTM1 levels in PANC-1 cells
# Description: (§1) FIG. 2. BL-918 is a potent ULK1 agonist and autophagy inducer (A) Representative images of PANC-1 cells stably expressing the mCherry-EGFP-LC3 tandem reporter treated with ULK1 agonists. Nuclei stained with Hoechst 33342, autophagosomes are shown in the EGFP channel and autolysosomes in the mCherry channel. Fold change in the number of autophagosomes (B) and autolysosomes (C) puncta in ULK1 agonist treated cells. (D) Western blot of PANC-1 cells treated with DMSO, bafilomycin and ULK1 agonists±bafilomycin; probed for p-ULK1 (S317), ULK1, p62, b-actin, LC3-I and LC3-II. Quantifications of western blot for changes in the ratio of p-ULK1 (S317):ULK1 (E), p62 (F) and LC31:LC3II (G). All data shown are mean±SEM, n=3, *p<0.05, ** p<0.01, one-way ANOVA with Dunnett's multiple comparisons test.
# (§2) FIG. 4. ULKTACs retain ULK1 agonist activity and subsequent induction of autophagy (A) Western blot of PANC-1 cells treated with ULKTACs±bafilomycin, probed for p-ULK1 (S317), ULK1, p62, b-Actin, LC31 and LC3II. Quantifications of (A) for the pULK1:ULK1 ratio (B) LC3I:LC3II ratio (C) and changes in p62 (D). (E) Representative images of PANC-1 cells stably expressing the mCherry-EGFP-LC3 tandem reporter treated with ULKTACs w/or w/o bafilomycin. Nuclei stained with Hoechst 33342, autophagosomes are shown in the EGFP channel and autolysosomes in the mCherry channel. […]
# (§3) Cells were homogenised in protein lysis buffer consisting of 0.1 M Tris pH 8.0, 0.1 M NaCl, 5% glycerol, IGEPAL® CA-630 (#18896. Sigma-Aldrich) and 5 mM EDTA, 0.1 M N-ethyl maleimide (ThermoFisher, #23030) and protease inhibitor (Cell Signalling Technologies, #5871). Protein concentrations were determined using the BCA assay to ensure equal loading. […]
# (§4) Membranes were then incubated with horseradish peroxidase (HRP)-conjugated secondary antibodies (Rabbit #7074 and Mouse #7076) purchased from Cell Signalling Technologies for 1 hour and the HRP signal was detected using EZ-ECL Enhanced Chemiluminescence Detection Kit for HRP (#20-500-500, Sartorius), and imaged with an Alliance Q9 Advanced (UVITec). […]
# PANC-1 cells = assay: mCherry-EGFP-LC3 tandem reporter assay, autophagosomes/autolysosomes; conditions: for autophagic flux: bafilomycin A1 co-treatment; for enhanced number of mCherry puncta: co-treatment with bafilomycin A1; for fold increase in number of mCherry puncta: mCherry puncta (autolysosomes); for fold increase in number of EGFP puncta: panc-1 cells
# Experimental: FIG. 1. The structure of AUTAC-4 is shown in (A). (B) Representative images of SH-SY5Y cells stably expressing the mito-mKeima reporter treated with AUTAC4 for 18 h. Nuclei were stained with Hoechst 33342, healthy mitochondria are shown in green and mitochondria in lysosomes are shown in red. (C-E) Fold change in mitophagy index over time after treatment with increasing concentrations of AUTAC4 under treatment with DMSO (C), 3 mM CCCP (D) or 0.1/0.1 mM antimycin/oligomycin (E), also for 18 h. (F) Quantification of changes in mitochondrial membrane potential over time (DYm) by measuring the TMRM relative fluorescence intensity (RFI) treated with DMSO, 10 mM CCCP, 10 mM and 20 mM AUTAC4. Normalised to number of nuclei. (G) Representative western blot of SH-SY5Y cells treated with DMSO, 10 mM AUTAC4 or 10 mM AUTAC4+0.1/0.1 mM antimycin/oligomycin for 18 h and, probed for p62, b-actin and Tom20. Quantifications of western blot for changes in Tom20 and p62 levels shown in (H) and (I), respectively. (J) Representative images of PANC-1 cells stably expressing the mCherry-EGFP-LC3 tandem reporter. Nuclei stained with Hoechst 33342, autophagosomes are shown in the EGFP channel and autolysosomes in the mCherry channel. Fold change in the number of autophagosome (K) and autolysosome (L) puncta in AUTAC4 treated cells. All data shown are mean±SEM, n=3, *p<0.05, *** p<0.001. For mito-mKeima experiments, statistics were calculated by Two-way ANOVA with Tukey's multiple comparisons test. For western blots, TMRM and LC3 tandem reporter assay, statistics were calculated with one-way ANOVA with Tukey's multiple comparisons test.
# as §1
# FIG. 4. ULKTACs retain ULK1 agonist activity and subsequent induction of autophagy (A) Western blot of PANC-1 cells treated with ULKTACs±bafilomycin, probed for p-ULK1 (S317), ULK1, p62, b-Actin, LC31 and LC3II. Quantifications of (A) for the pULK1:ULK1 ratio (B) LC3I:LC3II ratio (C) and changes in p62 (D). (E) Representative images of PANC-1 cells stably expressing the mCherry-EGFP-LC3 tandem reporter treated with ULKTACs w/or w/o bafilomycin. Nuclei stained with Hoechst 33342, autophagosomes are shown in the EGFP channel and autolysosomes in the mCherry channel. Fold change in the number of autophagosome (F) and autolysosome (G) puncta. Data shown are mean±SEM, *p<0.05, ** p<0.01, *** p<0.001, one-way ANOVA, Dunnett's multiple comparisons test.
# PANC-1 and A549 cells were separately seeded at a medium density in 24-well plates and infected overnight with 500 μL of filtered viral supernatant containing polybrene at a final concentration of 8 μg/mL. Cells were selected at 48 h post-transfection with 1 μg/mL puromycin and expanded into 10 cm tissue-culture treated dishes. Puromycin treatment was withheld once control cells had died. Experiments were performed without puromycin present using pooled populations of transduced cells. A549 and PANC-1 stably expressing mCherry-EGFP-LC3 tandem reporter cells were imaged with the PerkinElmer Opera Phenix or Opera Phenix Plus High Content Imaging Systems and analysed using Columbus software (v2.9.1). […]
# LC3 = assay: Western blot, LC3I:LC3II ratio in PANC-1 cells
# Description: as §1, §2, §3, §4
smiles,measurement,setting,value
"O=C(Nc1ccc(F)cc1F)[C@H](NC(=S)Nc1cc(C(F)(F)F)cc(C(F)(F)F)c1)c1ccccc1 [BL-918, reference compound]",p62/SQSTM1 levels,p62/SQSTM1,reduction in p62/SQSTM1 levels
same,green fluorescent puncta / number of autophagosomes,PANC-1 cells,mild increase in autophagosome number
same,LC31: LC3II ratio,LC3,increases in the LC31: LC3II ratio
"O=C(Nc1cc(C(F)(F)F)cc(C(F)(F)F)c1)N[C@@H](C(=O)Nc1ccc(F)cc1F)c1ccc(OCc2cn(CCOCCOCCNC(=O)C(=O)c3c(-c4ccccc4)[nH]c4ccccc34)nn2)cc1 [NZ-65, (R)-2-(3-(3,5-bis(trifluoromethyl)phenyl)ureido)-N-(2,4-difluorophenyl)-2-(4-((1-(2-(2-(2-(2-oxo-2-(2-phenyl-1H-indol-3-yl)acetamido)ethoxy)ethoxy)ethyl)-1H-1,2,3-triazol-4-yl)methoxy)phenyl) acetamide]",p62/SQSTM1 levels,p62/SQSTM1,mild reductions in p62/SQSTM1
same,autophagic flux,PANC-1 cells,did not block autophagic flux
same,enhanced number of mCherry puncta,PANC-1 cells,reversed
same,fold increase in number of mCherry puncta,PANC-1 cells,1.3 fold
same,fold increase in number of EGFP puncta,PANC-1 cells,1.5 fold
same,LC31: LC3II ratio,LC3,increases in the LC31: LC3II ratio
"O=C(Nc1cc(C(F)(F)F)cc(C(F)(F)F)c1)N[C@@H](C(=O)Nc1ccc(F)cc1F)c1ccc(OCc2cn(CCCCCCNC(=O)C(=O)c3c(-c4ccccc4)[nH]c4ccccc34)nn2)cc1 [NZ-66, (R)-2-(3-(3,5-bis(trifluoromethyl)phenyl)ureido)-N-(2,4-difluorophenyl)-2-(4-((1-(6-(2-oxo-2-(2-phenyl-1H-indol-3-yl)acetamido)hexyl)-1H-1,2,3-triazol-4-yl)methoxy)phenyl) acetamide]",p62/SQSTM1 levels,p62/SQSTM1,mild reductions in p62/SQSTM1
same,autophagic flux,PANC-1 cells,did not block autophagic flux
same,enhanced number of mCherry puncta,PANC-1 cells,reversed
same,fold increase in number of mCherry puncta,PANC-1 cells,1.3 fold
same,fold increase in number of EGFP puncta,PANC-1 cells,1.5 fold
same,LC31: LC3II ratio,LC3,increases in the LC31: LC3II ratio
